Consider 8 molecules from paper PMC4601640, “Stability of the Human Hsp90-p50^Cdc37 Chaperone Complex against Nucleotides and Hsp90 Inhibitors, and the Influence of Phosphorylation by Casein Kinase 2” (Molecules, 2015).

Read-outs that look alike come from different tables or passages of the source.

Assay [1] addresses T1, hHsp90β-FL (Homo sapiens, UniProt P08238).
T1 construct: The gene encoding human full-length Hsp90β was subcloned from T47D cell line cDNA; His6 (N); made in house; host or cells: E. coli BL21 Star (DE3)
Put plainly: ITC direct binding to full-length Hsp90β. To be noted: for Kd: unphosphorylated hHsp90β-FL, 30 °C, read-out: Observed Kd. As to the method:
(§1) Binding of p50^Cdc37 and small molecules to Hsp90 was analyzed using a MicroCal iTC200 titration calorimeter (GE Healthcare). Compounds or p50^Cdc37 were titrated into a solution of Hsp90 using the following concentrations: p50^Cdc37 (200 µM) into Hsp90 (20 µM), nucleotides (600 µM) into Hsp90 (30 µM), inhibitors (300 µM) into Hsp90 (30 µM). […] All experiments were conducted in 50 mM HEPES pH 7.5, 10 mM MgCl2 at 30 °C. For titration of inhibitors, the buffer contained 5% DMSO. […] Generation of heat due to dilution was determined in separate experiments by diluting protein into buffer and subtracting these as blank values for each injection. Corrected heat values were fitted using a nonlinear least squares curve-fitting algorithm (Microcal Origin 7.0) to obtain the stoichiometry (n), binding constants (Ka, Kd), and change in enthalpy for each enzyme-ligand interaction (ΔH).

A further assay concerns the target T2, Hsp90-p50^Cdc37 (Homo sapiens, UniProt P08238).
T2 construct: The gene encoding human full-length Hsp90β was subcloned from T47D cell line cDNA; made in house; host or cells: E. coli BL21 Star (DE3) (Hsp90β); E. coli BL21 (DE3) (GST-p50Cdc37)
As to the kind of experiment: ELISA complex formation, immobilized GST-p50^Cdc37 and Hsp90β, unphosphorylated. Type of assay: binding. To be noted: for IC50: ELISA, Hsp90-p50^Cdc37 (unphosphorylated); for inhibitory activity against the complex: unphosphorylated or phosphorylated complex, in vitro.

A further assay addresses T3, ΔHsp90-p50^Cdc37 (Homo sapiens, UniProt P08238, DEL220-271/E274G/I272G/K273G/K275G).
T3 construct: human Hsp90β (1-724 Δ220-275); made in house; host or cells: E. coli BL21 Star (DE3) (ΔHsp90β); E. coli BL21 (DE3) (GST-p50Cdc37)
As to the kind of experiment: ELISA complex formation, ΔHsp90. Type of assay: binding.

Assay [2] deals with T4, ΔHsp90β interaction with GST-p50^Cdc37 (Homo sapiens, UniProt P08238, DEL220-271/E274G/I272G/K273G/K275G).
T4 construct: human Hsp90β (1-724 Δ220-275); made in house; host or cells: E. coli BL21 Star (DE3) (ΔHsp90β); E. coli BL21 (DE3) (GST-p50Cdc37)
T4 sequence (P08238 with tags, fused parts or gaps DEL220-271/I272G/K273G/E274G/K275G): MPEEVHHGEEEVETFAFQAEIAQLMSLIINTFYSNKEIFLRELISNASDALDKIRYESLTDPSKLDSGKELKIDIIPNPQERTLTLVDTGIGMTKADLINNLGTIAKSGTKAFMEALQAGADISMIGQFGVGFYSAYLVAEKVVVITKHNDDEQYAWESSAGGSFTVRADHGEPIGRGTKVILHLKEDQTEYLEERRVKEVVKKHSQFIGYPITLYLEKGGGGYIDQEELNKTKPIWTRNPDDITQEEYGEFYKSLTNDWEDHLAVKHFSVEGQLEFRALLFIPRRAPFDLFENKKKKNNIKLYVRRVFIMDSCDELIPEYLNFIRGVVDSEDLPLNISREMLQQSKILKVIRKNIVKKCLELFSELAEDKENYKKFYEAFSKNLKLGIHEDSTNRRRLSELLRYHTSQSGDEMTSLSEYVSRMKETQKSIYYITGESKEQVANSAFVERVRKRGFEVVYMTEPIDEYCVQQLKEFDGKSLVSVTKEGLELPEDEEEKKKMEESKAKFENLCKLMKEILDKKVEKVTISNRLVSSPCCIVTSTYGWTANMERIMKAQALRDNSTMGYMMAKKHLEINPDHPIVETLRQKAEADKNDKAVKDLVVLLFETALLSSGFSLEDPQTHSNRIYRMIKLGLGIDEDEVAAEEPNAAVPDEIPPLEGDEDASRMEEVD
Put plainly: GST pull-down of ΔHsp90β with GST-p50^Cdc37. The class given is binding. To be noted: for effect on complex in GST pull-down: 1 mM nucleotide or 0.1 mM inhibitor, 15 min incubation, SDS-PAGE. As to the method:
GST pull-down experiments were carried out using 1 mL GST 4 FastFlow resin in 8 mL Flex columns (Kontes). All experiments were performed at room temperature by gravity flow. Loading and wash buffers contained 50 mM Tris pH 8, 50 mM KCl, 5 mM MgCl2, and 5% DMSO. The elution buffer contained an additional 10 mM reduced glutathione. […] The resin was washed with 20 CV wash buffer, and samples were eluted with 2 CV elution buffer. Eluted protein was analysed on 12% SDS-PAGE stained with Coomassie blue for visualization.

The target of a further assay is (p)Hsp90-p50^Cdc37 (Homo sapiens, UniProt P08238). Put plainly: ELISA complex formation, CK2-phosphorylated Hsp90β. To be noted: ELISA, (p)Hsp90-p50^Cdc37.
Sequence of (p)Hsp90-p50^Cdc37 (P08238 whole entry): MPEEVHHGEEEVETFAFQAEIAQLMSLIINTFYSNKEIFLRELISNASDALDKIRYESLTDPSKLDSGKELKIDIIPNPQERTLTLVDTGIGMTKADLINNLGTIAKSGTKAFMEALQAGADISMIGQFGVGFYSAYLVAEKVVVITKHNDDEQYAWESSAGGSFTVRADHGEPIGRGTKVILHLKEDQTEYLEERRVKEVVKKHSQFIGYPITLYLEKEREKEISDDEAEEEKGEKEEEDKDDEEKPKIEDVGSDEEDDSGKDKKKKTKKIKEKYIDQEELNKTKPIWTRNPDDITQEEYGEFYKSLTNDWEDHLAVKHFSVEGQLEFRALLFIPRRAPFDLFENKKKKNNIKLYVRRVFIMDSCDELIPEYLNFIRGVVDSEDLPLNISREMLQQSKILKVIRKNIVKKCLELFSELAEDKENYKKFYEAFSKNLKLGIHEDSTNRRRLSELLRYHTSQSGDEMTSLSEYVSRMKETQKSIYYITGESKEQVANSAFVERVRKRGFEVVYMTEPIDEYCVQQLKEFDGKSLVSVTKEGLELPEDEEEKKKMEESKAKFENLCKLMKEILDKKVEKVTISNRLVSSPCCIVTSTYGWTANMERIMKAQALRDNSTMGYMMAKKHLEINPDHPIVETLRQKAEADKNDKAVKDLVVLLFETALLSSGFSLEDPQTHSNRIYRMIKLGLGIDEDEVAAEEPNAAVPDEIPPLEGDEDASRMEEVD
The next assay deals with (p)Hsp90-(p)p50^Cdc37 (Homo sapiens, UniProt P08238). As to the kind of experiment: ELISA complex formation, both proteins CK2-phosphorylated. To be noted: for IC50: ELISA, (p)Hsp90-(p)p50^Cdc37 (phosphorylated complex); for disruption of the phosphorylated complex: CK2-phosphorylated complex.
Sequence of (p)Hsp90-(p)p50^Cdc37 (P08238 whole entry): as above
Another assay has as its target T5, hΔHsp90β (Homo sapiens, UniProt P08238, DEL220-271/E274G/I272G/K273G/K275G).
T5 construct: human Hsp90β (1-724 Δ220-275); His6 (N); made in house; host or cells: E. coli BL21 Star (DE3)
Put plainly: ITC direct binding to Hsp90β deletion mutant lacking the charged linker. To be noted: 50 mM HEPES pH 7.5, 10 mM MgCl2, 30 °C, read-out: Observed Kd.
Source text: The gene encoding human full-length Hsp90β was subcloned from T47D cell line cDNA, and human full-length CK2α was subcloned from MCF7 cell line cDNA, both a kind gift from Dr. Jonathan Lancaster, Moffitt Cancer Center. […] The deleted sections in the two Hsp90 genes were each replaced by four glycine residues. Hsp90α and Hsp90β were subcloned into the pET28a vector (Novagen), and p50^Cdc37 was subcloned into a modified pET28a vector containing a maltose-binding protein (MBP) solubility tag and a PreScission protease cleavage site using restriction enzymes BamHI and NotI (Fermentas) and T4 DNA ligase (Invitrogen) following the manufacturers’ instructions. BamHI was substituted with NdeI for full-length Hsp90β. p50^Cdc37 was also subcloned into the pGEX6P-1 vector (GE Healthcare) using the same procedure as above to provide an N-terminal GST-tag for GST pull-down and ELISA experiments. The plasmids were transformed into E. coli BL21 Star (DE3) (Hsp90α and Hsp90β, Invitrogen), Tuner (DE3) (p50^Cdc37 modified pET28a, Novagen), or BL21 (DE3) (p50^Cdc37 pGEX6P-1, Stratagene) expression strains. Transformed cells were grown in LB broth at 37 °C until the OD600 reached 0.4, then the temperature was lowered to 16 °C, and cells were induced with 0.1 mM IPTG at OD600 = 0.5–0.7. Cultures were then grown for 20–24 h before harvesting by centrifugation (30 min at 30,000× g, 4 °C).
as §1

A further assay concerns the target h(p)Hsp90β-FL (Homo sapiens, UniProt P08238). As to the kind of experiment: ITC direct binding to CK2-phosphorylated full-length Hsp90β. To be noted: 30 °C, read-out: Observed Kd. As to the method:
as §1

Another assay deals with T6, Hsp90-(p)p50^Cdc37 (Homo sapiens, UniProt P08238).
T6 construct: The gene encoding human full-length Hsp90β was subcloned from T47D cell line cDNA; made in house; host or cells: E. coli BL21 Star (DE3) (Hsp90β); E. coli BL21 (DE3) (GST-p50Cdc37)
Put plainly: ELISA complex formation, CK2-phosphorylated p50^Cdc37. Type of assay: binding.

Assay [3] addresses hHsp90β-FL. To be noted: read-out: Reported Kd, cited from earlier work.
The next assay concerns Hsp90β-p50^Cdc37 complex. More on the design: method as in PMID 19858214. To be noted: ref [26]; cited from earlier work.
The next assay has as its target yHsp82-FL. To be noted: yHsp82-FL; ref [34]; read-out: Reported Kd; cited from earlier work.

T3 sequence (P08238 with tags, fused parts or gaps DEL220-271/I272G/K273G/E274G/K275G): as the sequence (P08238 with tags, fused parts or gaps DEL220-271/I272G/K273G/E274G/K275G) above
Sequence of h(p)Hsp90β-FL (P08238 whole entry): as the sequence (P08238 whole entry) above
T5 sequence (P08238 with tags, fused parts or gaps DEL220-271/I272G/K273G/E274G/K275G): as the sequence (P08238 with tags, fused parts or gaps DEL220-271/I272G/K273G/E274G/K275G) above
Procedure for (p)Hsp90-(p)p50^Cdc37: (§2) Phosphorylation of full-length Hsp90β and p50^Cdc37 was performed using purified full-length CK2α. The reaction was carried out in a 2.5 mL volume containing 50 µM Hsp90β or p50^Cdc37, 0.5 µM CK2α, 0.5 mM ATP, 20 mM Tris (pH 7.5), 50 mM KCl, and 10 mM MgCl2, and was incubated for 1 h at 30 °C. Samples were removed for analysis of phosphorylation status, and the proteins were re-buffered into 50 mM HEPES (pH 7.5), 150 mM NaCl, and 1 mM DTT (ELISA), or into 50 mM HEPES (pH 7.5) for ITC, using PD-10 gravity columns (GE Healthcare). Dephosphorylation was performed using 2.5 units of FastAP (alkaline phosphatase from Thermo Scientific) in buffer containing 10 mM Tris (pH 8.0 at 37 °C), 5 mM MgCl2, 100 mM KCl, 0.02% Triton-X 100, and 0.5 mg/mL BSA for 1 h at 37 °C.
(§3) Purified GST-p50^Cdc37 (4 µM) or control (purified GST alone, 4 µM) was added to glutathione-coated 96-well plates (Pierce) in 100 μL protein buffer (50 mM HEPES, pH 7.5, 150 mM NaCl, 10 mM MgCl2, 0.05% Tween-20, and 0.1% BSA) and incubated for 1 h at room temperature (triplicate wells per sample). […] The mixtures were then added to the wells (100 μL per well, in triplicates) and incubated for 1 h at room temperature before washing. The wells were incubated with anti-His6-tag mAb (1 mg/mL stock, Abcam), diluted 1:2000 in antibody buffer (50 mM HEPES pH 7.5, 150 mM NaCl, 10 mM MgCl2, 0.05% Tween-20, and 1% BSA) for 1 h, followed by secondary antibody (horse anti-mouse HRP-conjugated IgG, Cell Signaling Technology), diluted 1:5000 in antibody buffer, for 1.5 h at room temperature. After washing three times with 1× HBS-T and two times with 1× HBS, 200 μL HRP substrate (SigmaFast OPD) was added per well. The plates were incubated at room temperature, and the absorbance was read at 450 nm after 15 min and 30 min using a SpectraMax 340 PC plate reader (Molecular Devices). For dose-response measurements, absorption values were corrected for unspecific binding of Hsp90 to immobilized GST, and the raw data were fit to equation (1), where f(I) is the fraction of complex remaining, [I] is the concentration of the inhibitor, IC50 is the half maximal inhibitory concentration against Hsp90-p50^Cdc37 complex formation, n is the Hill slope coefficient, min is the signal remaining at high inhibitor concentrations and max is the signal of the uninhibited complex. Corrected absorption values (ΔOD) for the uninhibited Hsp90-p50^Cdc37 complex (unphosphorylated and phosphorylated) were in the range of 0.4–1.0. Data were expressed relative to the respective max value of Equation (1). (1) f(I)=min+(max−min)/1+([I]/IC50)^n
Procedure for (p)Hsp90-p50^Cdc37: as §2, §3

For the molecule `O=C(O)CCc1nn(Cc2ccc(Cl)cc2Cl)c2cc(C(F)(F)F)ccc12` [H2-GMZ, H2-gamendazole], the “binding potential towards Hsp90β” value on hHsp90β-FL [1] (Figure 3) was “failed to display binding potential”. Also, the IC50 at Hsp90-p50^Cdc37, against ΔHsp90-p50^Cdc37, at (p)Hsp90-p50^Cdc37 and against (p)Hsp90-(p)p50^Cdc37 was over 1000 µM throughout. In addition, the “inhibitory activity against the complex” value at Hsp90-p50^Cdc37 is “did not show appreciable inhibitory activity”; against Hsp90-p50^Cdc37 (listed as H2-gamendazole) it was “did not affect the interaction of Hsp90 with p50^Cdc37 in vitro”. In addition, the “effect on complex in GST pull-down” value in [2] is listed as “ineffective”. Moreover, in assay [2] (in the presence of ADP, 0.1 mM radicicol), the “protection of the complex from ADP in GST pull-down competition” value was “had no effect”.
As to `Nc1ncnc2c1ncn2[C@@H]1O[C@H](COP(=O)(O)OP(=O)(O)OP(=O)(O)O)[C@@H](O)[C@H]1O` [ATP], the Kd at hΔHsp90β was 43 µM; at hHsp90β-FL [1], 4.6 µM; at h(p)Hsp90β-FL, 11 µM; at hHsp90β-FL [3] (ref [31]) it was 240 µM. The IC50 is over 1000 µM against Hsp90-p50^Cdc37; over 1000 µM at Hsp90-(p)p50^Cdc37; over 1000 µM against ΔHsp90-p50^Cdc37; 450 ± 150 µM at (p)Hsp90-p50^Cdc37; 230 ± 40 µM on (p)Hsp90-(p)p50^Cdc37. Also, the “effect on complex in GST pull-down” value in assay [2] is “stable complex”. Moreover, on (p)Hsp90-(p)p50^Cdc37, the “disruption of the phosphorylated complex” value is “remained largely ineffective”.
Turning to `C=CCNC1=C2C[C@@H](C)C[C@H](OC)[C@H](O)[C@@H](C)/C=C(\C)[C@H](OC(N)=O)[C@@H](OC)/C=C\C=C(/C)C(=O)NC(=CC1=O)C2=O` [17-AAG, Tanespimycin], in the assay with Hsp90β-p50^Cdc37 complex, the “effect on complex formation between Hsp90β and p50^Cdc37” value is “showed no effect”.
In the case of `Nc1ncnc2c1ncn2[C@@H]1O[C@H](COP(=O)(O)OP(=O)(O)NP(=O)(O)O)[C@@H](O)[C@H]1O` [AMP-PNP], the Kd was 84 µM on hΔHsp90β, 85 µM at hHsp90β-FL [1], 590 µM on h(p)Hsp90β-FL and 148 µM on hHsp90β-FL [3] (ref [31]). For the same molecule, the IC50 on Hsp90-p50^Cdc37, on ΔHsp90-p50^Cdc37, against (p)Hsp90-p50^Cdc37 and against (p)Hsp90-(p)p50^Cdc37 was over 1000 µM throughout. For the same molecule, the “inhibitory activity against the complex” value at Hsp90-p50^Cdc37 was “did not show appreciable inhibitory activity”. The “disruption of the phosphorylated complex” value at (p)Hsp90-(p)p50^Cdc37 is “remained largely ineffective”.
Take `CCNC(=O)c1noc(-c2cc(C(C)C)c(O)cc2O)c1-c1ccc(CN2CCOCC2)cc1` [NVP-AUY922]: the “inhibitory activity against the complex” value against Hsp90-p50^Cdc37 was “did not show appreciable inhibitory activity”. For the same molecule, the Kd at hHsp90β-FL [3] (ref [32]) was 0.0017 µM.
With `CO[C@H]1/C=C\C=C(/C)C(=O)NC2=CC(=O)C(NCCN(C)C)=C(C[C@@H](C)C[C@H](OC)[C@H](O)[C@@H](C)/C=C(\C)[C@@H]1OC(N)=O)C2=O` [17-DMAG], the Kd at hHsp90β-FL [3] (ref [33]) is 0.35 µM. Also, in the assay on Hsp90β-p50^Cdc37 complex, the “effect on complex formation between Hsp90β and p50^Cdc37” value is “showed no effect”.
Turning to “(p)p50^Cdc37: human p50^Cdc37 phosphorylated by CK2 at residue Ser13”, the Kd with h(p)Hsp90β-FL worked out at 1.9 ± 0.13 µM.
Consider `C[C@@H]1C[C@H]2O[C@@H]2/C=C\C=C\C(=O)Cc2c(Cl)c(O)cc(O)c2C(=O)O1` [Radicicol], for which, at yHsp82-FL, the Kd is 0.019 µM.
